Measured values reported in paper PMC11842024, “Reversible male contraception by targeted inhibition of serine/threonine kinase 33” (Science (New York, N.Y.), 2024).

What was measured:
male mice [1] = test: Fertility analysis and reversibility in male mice; assay type: in vivo
Method: On the basis of molecular modeling, mouse and human STK33 have identical ATP binding pockets (fig. S19), consistent with evolutionary conservation and function of STK33. To determine the consequences of STK33 inhibition in vivo, we evaluated reproductive outcomes in male mice dosed with CDD-2807. […] In protocol 1, adult male mice (n = 6 per cohort) were treated with vehicle control or CDD-2807 at 15 mg kg^−1 intraperitoneally twice per day for 21 days, subsequently housed continuously with fertile female mice of reproductive age (two per male), and then evaluated at day 45 for effects of CDD-2807 on the male reproductive tract (after the first litter was born) or continued to be housed with the females until day 66 after the completion of the 60-day breeding data collection (fig. S21A). In protocol 2, adult male mice (n = 7 per cohort) were treated with vehicle control or CDD-2807 at 50 mg kg^−1 once per day for 21 days, subsequently housed continuously with females (two per male), and then evaluated at later time points (fig. S21B). […] In month 2, litters were born to all females housed with the six control males (2.0 ± 0 litters per male; 7.25 ± 0.17 pups per female per litter) (Fig. 4A). By contrast, no litters were produced by females housed with males who received CDD-2807 (Fig. 4A). For protocol 2 mice, all seven control males sired litters from both females in month 1 (7.29 ± 0.18 pups per litter per female), whereas only one female became pregnant and delivered a single pup from the seven CDD-2807–treated males (50 mg kg^−1 day^−1) (0.07 ± 0.07 pups per litter per female) (Fig. 4B). […] Thus, CDD-2807 delivery in both protocols induced a contraceptive effect. […]
Fertility analysis. Sexually mature male C57/129 hybrid mice were randomly assigned to either the vehicle control treatment or the CDD-2807 treatment groups. Drug formulation and injections were as follows: for protocol 1 mice receiving the 15 mg/kg CDD-2807 twice daily dosing had the compound dissolved in DMSO, which was injected at 5% of the final volume in 10% Captisol and water. For protocol 2 mice receiving a single daily dose of 50 mg/kg CDD-2807, the compound was dissolved in DMSO and injected at 5% in 20% Captisol and water. All injections were administered as i.p. injections, and for the 15 mg/kg CDD-2807 and DMSO control mice, the injections were delivered in the morning and the evening. Mice in the 50 mg/kg dosing received i.p. injections once in the evening. Weights were measured daily prior to drug administration and monitored throughout the entirety of the injection period. Injections were given for 21 days prior to introduction of female mice. During the fertility assessment, males were housed continuously with two C57/129 sexually mature females for 45 days to generate approximately two months of fertility data. During the fertility assessment, the total number of pups born per litter sired by each male were counted and the total number of litters and pups sired per male over the entire trial was calculated. Mean pup number and SEM were used to determine differences in average number of […]
fig. S21. Protocol timelines of mouse breeding and reversibility study. (A) Protocol 1 represents the 15 mg/kg twice per day drug dosing of CDD-2807. Samples were collected at euthanasia on day 45 from half of the male mice, allow ing for the completion of the 30-day breeding data to be collected and to give the male mice sufficient time with their female counterparts to initiate the day 60 breeding data. After completion of the entire 60-day breeding data, protocol 1 mice were then “rested” for 21 days prior to measuring their recovery period where they were housed with females to determine fertility. ( B) Protocol 2 represents the 50 mg/kg per day drug dosing of CDD-2807. Samples were collected at euthanasia on day 63 from half of the male mice; this allowed for the entire completion of the initial breeding data prior to collections. […]

male mice [2] = test: Computer assisted sperm analysis (CASA) of cauda epididymis sperm; assay type: in vivo
Source text: To further understand the cause of the contraceptive effect of CDD-2807, we analyzed sperm from the cauda epididymis of each mouse using computer assisted sperm analysis (CASA). Although sperm counts were lower in the controls in protocol 1 mice versus CDD-2807–treated mice (fig. S23C), sperm motility (fig. S23D), progressive sperm (fig. S23E), and hyperactivated sperm (fig. S23F) were reduced in the CDD-2807–treated mice. In protocol 2, sperm counts (Fig. 4D), sperm motility (Fig. 4E), progressive sperm (Fig. 4F), and hyperactivated sperm (Fig. 4G) were reduced in the CDD-2807-treated mice versus control mice. […] Thus, low dose (CDD-2807 at 15 mg kg^−1 twice per day for 45 days) or reduced duration (CDD-2807 at 50 mg kg^−1 day^−1 for 7 days) appears to cause a functional defect in motility, whereas high dose (CDD-2807 at 50 mg kg^−1 day^−1 for 63 days) causes both functional and morphologic defects, consistent with the Stk33 knockout and likely a direct role of STK33 in phosphorylation of fibrous sheath proteins A-kinase anchoring protein 3 (AKAP3) and AKAP4 and/or other STK33 targets ([48]).

[3] = 50 mg/kg/day for 7 days (Protocol 3)
[4] = protocol 2 at 63 days, vs control

O=C(c1ccc2[nH]nc(C#Cc3ccccc3-c3ccccc3)c2c1)N1CC2(CCCNC2)C1 [CDD-2807]
litters per male (male mice [1]; protocol 1 (15 mg/kg i.p. twice per day), month 1): 1.0 ± 0.37 litters per male | pups per female per litter (male mice [1]; protocol 1, month 1): 0.92 ± 0.34 pups per female per litter | treated males that sired litters (male mice [1]; protocol 1, month 1): four of the six | litters produced by females housed with treated males (male mice [1]; protocol 1, month 2): no litters | pups per litter per female after recovery (male mice [1]; protocol 1, treatment halted at day 63, 21 days rest, first month of breeding): 7.67 ± 0.61 pups per litter per female | pups per litter per female (male mice [1]; protocol 2 (50 mg/kg/day i.p.), month 1): 0.07 ± 0.07 pups per litter per female | time to sire first litters after treatment (fertility resumption) (male mice [1]; protocol 2, after completion of treatment): 53.5 ± 5.1 days | litters sired (male mice [1]; protocol 2, month 2): did not sire any litters | progressive sperm (male mice [2]; [3]): statistically significant reductions | sperm counts (male mice [2]; [3]): did not alter | sperm hyperactivation (male mice [2]; [3]): statistically significant reductions | sperm motility (male mice [2]; [3]): statistically significant reductions | hyperactivated sperm (male mice [2]; protocol 1, day 45, vs control): reduced | progressive sperm (male mice [2]; protocol 1, day 45, vs control): reduced | sperm motility (male mice [2]; protocol 1, day 45, vs control): reduced | hyperactivated sperm (male mice [2]; [4]): significant decrease | progressive sperm (male mice [2]; [4]): significant decrease | sperm counts (male mice [2]; [4]): significant decrease | sperm motility (male mice [2]; [4]): significant decrease
